Columns and labels:
[1] = biological target: Cyclin-dependent kinase 7/ cyclin H (Homo sapiens) (UniProt P51946+P50613); experiment: Inhibition of human CDK7/cyclin H at 18.6 nM by HotSpot assay relative to control; format: protein-complex assay
[2] = biological target: T1, Tyrosine-protein kinase Tec (Homo sapiens) (UniProt P42680); experiment: Inhibition of human TEC at 18.6 nM by HotSpot assay relative to control
T1 sequence (whole entry): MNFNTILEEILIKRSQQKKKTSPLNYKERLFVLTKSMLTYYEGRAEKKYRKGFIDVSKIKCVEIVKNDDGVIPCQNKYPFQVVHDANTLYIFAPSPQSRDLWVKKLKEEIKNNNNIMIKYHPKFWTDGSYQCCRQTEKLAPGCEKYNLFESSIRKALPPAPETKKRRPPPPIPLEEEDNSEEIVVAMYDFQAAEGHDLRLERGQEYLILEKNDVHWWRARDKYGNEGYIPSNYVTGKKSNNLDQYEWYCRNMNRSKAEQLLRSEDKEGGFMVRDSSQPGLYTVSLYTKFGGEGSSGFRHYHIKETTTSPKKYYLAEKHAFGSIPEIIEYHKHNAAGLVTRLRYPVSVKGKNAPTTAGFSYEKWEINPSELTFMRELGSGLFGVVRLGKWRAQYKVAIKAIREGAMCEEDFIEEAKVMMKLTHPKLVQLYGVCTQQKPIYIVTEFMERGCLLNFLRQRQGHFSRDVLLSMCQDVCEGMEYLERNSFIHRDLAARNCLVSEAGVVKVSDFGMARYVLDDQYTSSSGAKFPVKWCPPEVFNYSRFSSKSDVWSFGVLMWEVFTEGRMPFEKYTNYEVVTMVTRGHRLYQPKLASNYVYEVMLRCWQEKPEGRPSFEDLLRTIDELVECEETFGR

[3] = biological target: RAC-gamma serine/threonine-protein kinase (Homo sapiens) (UniProt Q9Y243); experiment: Inhibition of human AKT3 at 1.82 nM by HotSpot assay relative to control
Sequence of RAC-gamma serine/threonine-protein kinase (Homo sapiens) (Q9Y243 whole entry): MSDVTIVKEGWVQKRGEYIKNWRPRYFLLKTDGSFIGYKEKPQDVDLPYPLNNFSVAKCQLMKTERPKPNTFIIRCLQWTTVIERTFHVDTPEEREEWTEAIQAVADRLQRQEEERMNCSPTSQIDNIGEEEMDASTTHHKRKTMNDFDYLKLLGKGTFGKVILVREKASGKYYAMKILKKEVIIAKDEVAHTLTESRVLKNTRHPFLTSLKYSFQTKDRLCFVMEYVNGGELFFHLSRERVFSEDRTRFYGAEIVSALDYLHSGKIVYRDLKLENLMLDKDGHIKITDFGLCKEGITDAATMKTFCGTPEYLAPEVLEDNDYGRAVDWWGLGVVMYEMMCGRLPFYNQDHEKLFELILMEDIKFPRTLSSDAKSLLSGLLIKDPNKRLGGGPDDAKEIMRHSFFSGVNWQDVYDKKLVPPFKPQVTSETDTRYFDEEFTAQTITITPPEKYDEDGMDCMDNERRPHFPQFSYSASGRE

[4] = biological target: Calcium/calmodulin-dependent protein kinase type 1G (Homo sapiens) (UniProt Q96NX5); experiment: Inhibition of human CAMK1g at 1.82 nM by HotSpot assay relative to control
Sequence of Calcium/calmodulin-dependent protein kinase type 1G (Homo sapiens) (Q96NX5 whole entry): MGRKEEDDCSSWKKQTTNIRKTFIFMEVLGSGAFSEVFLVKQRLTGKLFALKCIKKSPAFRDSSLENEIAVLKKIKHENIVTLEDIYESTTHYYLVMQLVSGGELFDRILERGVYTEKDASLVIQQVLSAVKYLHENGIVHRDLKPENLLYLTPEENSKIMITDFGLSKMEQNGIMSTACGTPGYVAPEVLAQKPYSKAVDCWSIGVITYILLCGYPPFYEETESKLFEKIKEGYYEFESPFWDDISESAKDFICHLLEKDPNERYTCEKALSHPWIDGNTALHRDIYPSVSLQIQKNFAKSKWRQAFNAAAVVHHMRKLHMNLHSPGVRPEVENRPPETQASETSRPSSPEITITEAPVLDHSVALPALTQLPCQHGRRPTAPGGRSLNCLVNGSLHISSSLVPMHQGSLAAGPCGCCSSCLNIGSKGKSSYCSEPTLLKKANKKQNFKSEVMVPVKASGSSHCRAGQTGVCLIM

[5] = biological target: CDK3/Cyclin E (Homo sapiens) (UniProt P24864+Q00526); experiment: Inhibition of human CDK3/cyclin E at 1.82 nM by HotSpot assay relative to control; format: protein-complex assay
Sequence of CDK3/Cyclin E (Homo sapiens) (P24864 whole entry, looked up): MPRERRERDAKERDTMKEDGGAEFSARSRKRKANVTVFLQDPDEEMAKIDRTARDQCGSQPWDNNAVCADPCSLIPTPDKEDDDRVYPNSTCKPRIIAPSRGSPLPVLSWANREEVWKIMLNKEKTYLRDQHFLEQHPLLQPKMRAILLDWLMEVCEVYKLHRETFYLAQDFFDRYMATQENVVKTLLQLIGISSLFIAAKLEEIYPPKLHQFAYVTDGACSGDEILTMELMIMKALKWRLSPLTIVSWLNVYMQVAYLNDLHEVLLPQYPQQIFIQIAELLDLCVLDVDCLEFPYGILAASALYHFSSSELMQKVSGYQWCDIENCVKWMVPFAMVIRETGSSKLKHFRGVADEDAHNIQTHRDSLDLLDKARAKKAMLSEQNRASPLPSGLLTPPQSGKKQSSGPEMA
Sequence of CDK3/Cyclin E (Homo sapiens) (Q00526 whole entry, looked up): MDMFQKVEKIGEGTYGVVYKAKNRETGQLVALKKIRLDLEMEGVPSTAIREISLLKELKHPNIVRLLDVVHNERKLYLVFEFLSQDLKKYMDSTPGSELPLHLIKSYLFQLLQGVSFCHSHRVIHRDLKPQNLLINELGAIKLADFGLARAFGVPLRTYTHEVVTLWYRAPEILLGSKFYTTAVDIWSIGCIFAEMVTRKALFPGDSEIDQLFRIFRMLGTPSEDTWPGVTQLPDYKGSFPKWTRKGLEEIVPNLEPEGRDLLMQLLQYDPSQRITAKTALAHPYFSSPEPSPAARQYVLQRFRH

[6] = biological target: T2, Serine/threonine-protein kinase Chk1 (Homo sapiens) (UniProt O14757); experiment: Inhibition of human CHK1 at 1.82 nM by HotSpot assay relative to control
T2 sequence (whole entry): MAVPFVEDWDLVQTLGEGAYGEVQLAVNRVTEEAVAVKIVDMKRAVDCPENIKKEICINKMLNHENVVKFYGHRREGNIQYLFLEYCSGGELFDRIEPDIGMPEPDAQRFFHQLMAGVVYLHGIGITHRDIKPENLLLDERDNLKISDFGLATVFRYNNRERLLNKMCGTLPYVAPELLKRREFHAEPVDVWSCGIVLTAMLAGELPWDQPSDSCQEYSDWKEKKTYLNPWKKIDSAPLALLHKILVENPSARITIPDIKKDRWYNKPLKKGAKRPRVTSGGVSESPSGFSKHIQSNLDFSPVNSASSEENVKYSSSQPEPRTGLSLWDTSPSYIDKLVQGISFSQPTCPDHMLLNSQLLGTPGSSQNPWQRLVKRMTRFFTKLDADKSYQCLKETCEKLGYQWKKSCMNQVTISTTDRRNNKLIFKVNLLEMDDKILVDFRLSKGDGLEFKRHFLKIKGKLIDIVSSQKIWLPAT

[7] = biological target: T3, Serine/threonine-protein kinase DCLK2 (Homo sapiens) (UniProt Q8N568); experiment: Inhibition of human DCAMKL2 at 1.82 nM by HotSpot assay relative to control
T3 sequence (whole entry): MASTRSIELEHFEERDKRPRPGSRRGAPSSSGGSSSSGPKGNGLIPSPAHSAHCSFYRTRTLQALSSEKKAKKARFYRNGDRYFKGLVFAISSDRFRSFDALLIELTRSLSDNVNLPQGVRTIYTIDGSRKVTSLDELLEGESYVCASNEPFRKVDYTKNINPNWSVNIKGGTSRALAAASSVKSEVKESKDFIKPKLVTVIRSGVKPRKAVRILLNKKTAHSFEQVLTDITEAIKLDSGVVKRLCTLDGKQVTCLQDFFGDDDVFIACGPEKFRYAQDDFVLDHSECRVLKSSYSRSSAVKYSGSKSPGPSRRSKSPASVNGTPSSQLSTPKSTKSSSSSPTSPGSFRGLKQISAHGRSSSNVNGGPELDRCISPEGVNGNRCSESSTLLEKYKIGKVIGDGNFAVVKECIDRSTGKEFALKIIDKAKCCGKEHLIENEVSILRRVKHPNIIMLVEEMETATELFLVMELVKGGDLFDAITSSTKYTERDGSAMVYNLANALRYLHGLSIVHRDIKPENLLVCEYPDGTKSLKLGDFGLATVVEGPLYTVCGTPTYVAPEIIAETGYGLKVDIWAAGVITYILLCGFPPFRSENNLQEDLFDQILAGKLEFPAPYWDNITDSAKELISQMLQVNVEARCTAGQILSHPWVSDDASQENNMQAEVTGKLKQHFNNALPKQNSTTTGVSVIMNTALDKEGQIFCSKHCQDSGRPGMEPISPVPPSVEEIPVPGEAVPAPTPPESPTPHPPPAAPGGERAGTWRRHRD

[8] = biological target: Tyrosine-protein kinase Fes/Fps (Homo sapiens) (UniProt P07332); experiment: Inhibition of human FES at 1.82 nM by HotSpot assay relative to control
Sequence of Tyrosine-protein kinase Fes/Fps (Homo sapiens) (P07332 whole entry, the tested form may be a part): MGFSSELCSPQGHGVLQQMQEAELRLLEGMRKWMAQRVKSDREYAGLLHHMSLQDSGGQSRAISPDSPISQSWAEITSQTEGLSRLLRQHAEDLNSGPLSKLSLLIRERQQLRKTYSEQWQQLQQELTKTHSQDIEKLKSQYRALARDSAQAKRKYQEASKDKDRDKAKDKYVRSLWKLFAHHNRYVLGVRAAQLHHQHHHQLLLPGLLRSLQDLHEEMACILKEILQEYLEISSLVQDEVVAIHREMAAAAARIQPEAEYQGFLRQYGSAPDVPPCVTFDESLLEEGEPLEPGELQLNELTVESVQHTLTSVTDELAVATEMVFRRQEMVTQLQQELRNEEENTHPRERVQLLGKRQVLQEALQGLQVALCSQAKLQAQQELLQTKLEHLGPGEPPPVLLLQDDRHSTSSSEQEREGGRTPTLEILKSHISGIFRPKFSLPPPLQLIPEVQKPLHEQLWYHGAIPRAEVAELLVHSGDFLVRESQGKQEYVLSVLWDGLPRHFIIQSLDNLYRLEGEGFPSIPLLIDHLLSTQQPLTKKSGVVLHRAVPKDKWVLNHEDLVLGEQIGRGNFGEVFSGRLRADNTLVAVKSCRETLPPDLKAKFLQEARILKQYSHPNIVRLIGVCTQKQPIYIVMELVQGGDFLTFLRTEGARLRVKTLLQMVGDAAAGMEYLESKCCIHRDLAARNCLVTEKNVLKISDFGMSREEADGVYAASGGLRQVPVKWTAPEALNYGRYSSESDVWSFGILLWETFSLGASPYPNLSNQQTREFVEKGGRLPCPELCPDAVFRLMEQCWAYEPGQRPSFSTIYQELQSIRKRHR

[9] = biological target: LIM domain kinase 1 (Homo sapiens) (UniProt P53667); experiment: Inhibition of human LIMK1 at 1.82 nM by HotSpot assay relative to control
Sequence of LIM domain kinase 1 (Homo sapiens) (P53667 whole entry, looked up, the tested form may be a part): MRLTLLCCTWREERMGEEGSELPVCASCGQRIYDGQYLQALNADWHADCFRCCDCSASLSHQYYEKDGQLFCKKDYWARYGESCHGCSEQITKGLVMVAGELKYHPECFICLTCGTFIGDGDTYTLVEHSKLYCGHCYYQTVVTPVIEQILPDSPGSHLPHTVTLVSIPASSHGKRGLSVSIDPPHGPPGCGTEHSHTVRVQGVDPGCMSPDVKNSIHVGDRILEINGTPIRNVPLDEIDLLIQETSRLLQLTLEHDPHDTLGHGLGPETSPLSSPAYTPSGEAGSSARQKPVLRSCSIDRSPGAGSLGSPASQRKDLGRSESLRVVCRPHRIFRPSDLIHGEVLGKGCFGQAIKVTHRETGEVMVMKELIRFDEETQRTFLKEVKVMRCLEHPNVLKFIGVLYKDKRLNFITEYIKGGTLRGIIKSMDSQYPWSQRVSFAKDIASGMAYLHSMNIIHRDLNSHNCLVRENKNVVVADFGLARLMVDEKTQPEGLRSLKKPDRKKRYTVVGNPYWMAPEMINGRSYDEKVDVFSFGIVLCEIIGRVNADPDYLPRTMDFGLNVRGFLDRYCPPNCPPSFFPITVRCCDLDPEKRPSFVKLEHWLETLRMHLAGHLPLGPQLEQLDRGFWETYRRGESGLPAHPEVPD

[10] = biological target: Serine/threonine-protein kinase Nek6 (Homo sapiens) (UniProt Q9HC98); experiment: Inhibition of human NEK6 at 1.82 nM by HotSpot assay relative to control
Sequence of Serine/threonine-protein kinase Nek6 (Homo sapiens) (Q9HC98 whole entry): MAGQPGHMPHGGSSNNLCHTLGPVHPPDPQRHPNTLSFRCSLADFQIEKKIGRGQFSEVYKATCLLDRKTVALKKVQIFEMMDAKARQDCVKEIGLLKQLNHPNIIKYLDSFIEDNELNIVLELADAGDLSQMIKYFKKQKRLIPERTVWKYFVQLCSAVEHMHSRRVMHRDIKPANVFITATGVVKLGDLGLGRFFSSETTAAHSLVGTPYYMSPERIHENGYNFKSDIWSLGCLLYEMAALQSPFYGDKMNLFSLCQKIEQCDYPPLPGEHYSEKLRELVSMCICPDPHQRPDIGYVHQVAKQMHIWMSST

inhibition [1] [%] | inhibition [2] [%] | inhibition [3] [%] | inhibition [4] [%] | inhibition [5] [%] | inhibition [6] [%] | inhibition [7] [%] | inhibition [8] [%] | inhibition [9] [%] | inhibition [10] [%] | Structure (SMILES)
-4.42 | 2.21 | – | – | – | – | – | – | – | – | C[C@]1(O)C[C@@H](c2nc(-c3ccc4ccc(-c5ccccc5)nc4c3)c3c(N)nccn32)C1
– | – | 2.34 | 7.27 | 0.42 | -4.39 | 3.94 | 5.24 | -7.35 | 5.33 | C[C@@]1(C(=O)Nc2ccc(F)nc2)CCCN1c1nc(Nc2cc(C3CC3)n[nH]2)c2cccn2n1
